Results from PubChem BioAssay (NCI).
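Briefly, cells in 96-well plates were exposed to five compound concentrations for 48 h, and endpoints were estimated by linear interpolation. GI50 marks 50% less growth. TGI is the concentration that stops growth completely.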

What was measured:
Assay in all cases: NCI tumour cell line growth inhibition, 48 h
CAKI-1 renal = test system: CAKI-1 renal
SK-MEL-2 melanoma = test system: SK-MEL-2 melanoma
HL-60(TB) leukemia = test system: HL-60(TB) leukemia
NCI-H460 lung = test system: NCI-H460 lung
RPMI-8226 leukemia = test system: RPMI-8226 leukemia
OVCAR-3 ovarian = test system: OVCAR-3 ovarian
EKVX NSCLC = test system: EKVX NSCLC
HS 578T breast = test system: HS 578T breast
DU-145 prostate = test system: DU-145 prostate
HOP-62 NSCLC = test system: HOP-62 NSCLC
HT29 colon = test system: HT29 colon
MDA-MB-231 breast = test system: MDA-MB-231 breast
SF-539 CNS = test system: SF-539 CNS
786-0 renal = test system: 786-0 renal
MALME-3M melanoma = test system: MALME-3M melanoma
HCT-116 colon = test system: HCT-116 colon
ACHN renal = test system: ACHN renal
HOP-92 NSCLC = test system: HOP-92 NSCLC
SR leukemia = test system: SR leukemia
MCF7 breast = test system: MCF7 breast
SF-268 CNS = test system: SF-268 CNS
IGROV1 ovarian = test system: IGROV1 ovarian
KM12 colon = test system: KM12 colon
UACC-257 melanoma = test system: UACC-257 melanoma
BT-549 breast = test system: BT-549 breast
SW-620 colon = test system: SW-620 colon
SNB-19 CNS = test system: SNB-19 CNS
K-562 leukemia = test system: K-562 leukemia
SK-MEL-28 melanoma = test system: SK-MEL-28 melanoma
UO-31 renal = test system: UO-31 renal
MOLT-4 leukemia = test system: MOLT-4 leukemia
NCI-H226 lung = test system: NCI-H226 lung
MDA-MB-435 = test system: MDA-MB-435
T-47D breast = test system: T-47D breast
SK-OV-3 ovarian = test system: SK-OV-3 ovarian
A498 renal = test system: A498 renal
HCC-2998 colon = test system: HCC-2998 colon
TK-10 renal = test system: TK-10 renal
SN12C renal = test system: SN12C renal
CCRF-CEM leukemia = test system: CCRF-CEM leukemia
SK-MEL-5 melanoma = test system: SK-MEL-5 melanoma
HCT-15 colon = test system: HCT-15 colon
COLO 205 colon = test system: COLO 205 colon
OVCAR-5 ovarian = test system: OVCAR-5 ovarian
OVCAR-8 ovarian = test system: OVCAR-8 ovarian
PC-3 prostate = test system: PC-3 prostate
M14 melanoma = test system: M14 melanoma
RXF 393 renal = test system: RXF 393 renal
NCI/ADR-RES ovarian = test system: NCI/ADR-RES ovarian
SNB-75 CNS = test system: SNB-75 CNS
SF-295 CNS = test system: SF-295 CNS
OVCAR-4 ovarian = test system: OVCAR-4 ovarian
U251 CNS = test system: U251 CNS
A549 NSCLC = test system: A549 NSCLC
UACC-62 melanoma = test system: UACC-62 melanoma
NCI-H23 lung = test system: NCI-H23 lung

SMILES: CNC1CCc2c(sc(NC(=O)c3ccc(C(C)(C)C)cc3)c2C(N)=O)C1 (configuration not stated)
- GI50 (CAKI-1 renal): 1900 nM
- TGI (CAKI-1 renal): 3810 nM
- GI50 (SK-MEL-2 melanoma): 2000 nM
- TGI (SK-MEL-2 melanoma): 4100 nM
- GI50 (HL-60(TB) leukemia): 634 nM
- TGI (HL-60(TB) leukemia): 2360 nM
- GI50 (NCI-H460 lung): 1630 nM
- TGI (NCI-H460 lung): 3330 nM
- GI50 (RPMI-8226 leukemia): 1950 nM
- TGI (RPMI-8226 leukemia): 4890 nM
- GI50 (OVCAR-3 ovarian): 1920 nM
- TGI (OVCAR-3 ovarian): 3990 nM
- GI50 (EKVX NSCLC): 1720 nM
- TGI (EKVX NSCLC): 4260 nM
- GI50 (HS 578T breast): 2150 nM
- TGI (HS 578T breast): 5430 nM
- GI50 (DU-145 prostate): 1950 nM
- TGI (DU-145 prostate): 4030 nM
- GI50 (HOP-62 NSCLC): 1550 nM
- TGI (HOP-62 NSCLC): 3600 nM
- GI50 (HT29 colon): 1290 nM
- TGI (HT29 colon): 3710 nM
- GI50 (MDA-MB-231 breast): 1610 nM
- TGI (MDA-MB-231 breast): 2970 nM
- GI50 (SF-539 CNS): 1660 nM
- TGI (SF-539 CNS): 3070 nM
- GI50 (786-0 renal): 1610 nM
- TGI (786-0 renal): 3100 nM
- GI50 (MALME-3M melanoma): 1630 nM
- TGI (MALME-3M melanoma): 3260 nM
- GI50 (HCT-116 colon): 1340 nM
- TGI (HCT-116 colon): 2660 nM
- GI50 (ACHN renal): 2010 nM
- TGI (ACHN renal): 4230 nM
- GI50 (HOP-92 NSCLC): 944 nM
- TGI (HOP-92 NSCLC): 5040 nM
- GI50 (SR leukemia): 1290 nM
- TGI (SR leukemia): 3510 nM
- GI50 (MCF7 breast): 1650 nM
- TGI (MCF7 breast): 3530 nM
- GI50 (SF-268 CNS): 2440 nM
- TGI (SF-268 CNS): 5420 nM
- GI50 (IGROV1 ovarian): 1590 nM
- TGI (IGROV1 ovarian): 3580 nM
- GI50 (KM12 colon): 1890 nM
- TGI (KM12 colon): 3610 nM
- GI50 (UACC-257 melanoma): 1920 nM
- TGI (UACC-257 melanoma): 4430 nM
- GI50 (BT-549 breast): 1850 nM
- TGI (BT-549 breast): 4670 nM
- GI50 (SW-620 colon): 1910 nM
- TGI (SW-620 colon): 3660 nM
- GI50 (SNB-19 CNS): 1870 nM
- TGI (SNB-19 CNS): 3640 nM
- GI50 (K-562 leukemia): 1320 nM
- TGI (K-562 leukemia): 3340 nM
- GI50 (SK-MEL-28 melanoma): 1730 nM
- TGI (SK-MEL-28 melanoma): 3250 nM
- GI50 (UO-31 renal): 1510 nM
- TGI (UO-31 renal): 3460 nM
- GI50 (MOLT-4 leukemia): 1740 nM
- TGI (MOLT-4 leukemia): 4090 nM
- GI50 (NCI-H226 lung): 1870 nM
- TGI (NCI-H226 lung): 4020 nM
- GI50 (MDA-MB-435): 1750 nM
- TGI (MDA-MB-435): 3400 nM
- GI50 (T-47D breast): 2060 nM
- TGI (T-47D breast): 5590 nM
- GI50 (SK-OV-3 ovarian): 2350 nM
- TGI (SK-OV-3 ovarian): 6140 nM
- GI50 (A498 renal): 1480 nM
- TGI (A498 renal): 4280 nM
- GI50 (HCC-2998 colon): 1760 nM
- TGI (HCC-2998 colon): 3340 nM
- GI50 (TK-10 renal): 2000 nM
- TGI (TK-10 renal): 3760 nM
- GI50 (SN12C renal): 2400 nM
- TGI (SN12C renal): 7340 nM
- GI50 (CCRF-CEM leukemia): 1520 nM
- TGI (CCRF-CEM leukemia): 4850 nM
- GI50 (SK-MEL-5 melanoma): 1700 nM
- TGI (SK-MEL-5 melanoma): 3080 nM
- GI50 (HCT-15 colon): 1520 nM
- TGI (HCT-15 colon): 3150 nM
- GI50 (COLO 205 colon): 1730 nM
- TGI (COLO 205 colon): 3540 nM
- GI50 (OVCAR-5 ovarian): 2000 nM
- TGI (OVCAR-5 ovarian): 4390 nM
- GI50 (OVCAR-8 ovarian): 2660 nM
- TGI (OVCAR-8 ovarian): 6930 nM
- GI50 (PC-3 prostate): 1730 nM
- TGI (PC-3 prostate): 4020 nM
- GI50 (M14 melanoma): 1750 nM
- TGI (M14 melanoma): 3600 nM
- GI50 (RXF 393 renal): 1420 nM
- TGI (RXF 393 renal): 2810 nM
- GI50 (NCI/ADR-RES ovarian): 2340 nM
- TGI (NCI/ADR-RES ovarian): 6340 nM
- GI50 (SNB-75 CNS): 2020 nM
- TGI (SNB-75 CNS): 5660 nM
- GI50 (SF-295 CNS): 1760 nM
- TGI (SF-295 CNS): 3270 nM
- GI50 (OVCAR-4 ovarian): 2050 nM
- TGI (OVCAR-4 ovarian): 5030 nM
- GI50 (U251 CNS): 1810 nM
- TGI (U251 CNS): 3790 nM
- GI50 (A549 NSCLC): 2090 nM
- TGI (A549 NSCLC): 4460 nM
- GI50 (UACC-62 melanoma): 1660 nM
- TGI (UACC-62 melanoma): 3060 nM
- GI50 (NCI-H23 lung): 1670 nM
- TGI (NCI-H23 lung): 3620 nM
